Measurements published in PubChem BioAssay AID256 (DTP/NCI, 2004).
Values joined by “and” are separate entries in the source; they are usually repeats but may differ in a detail not shown here. Equal entries are not always repeated. Toxic doses and inconclusive results are not listed. Rule for the calls: active = survival T/C of 150% or more; inactive = T/C below 125% in these data.

Test system: CD2F1 mice, L1210 leukemia ip, survival T/C
Experiment: NCI In Vivo Anticancer Drug Screen. Data for tumor model L1210 Leukemia (intraperitoneal) in CD2F1 (CDF1) mice
Details: higher = longer survival
Method in brief: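 Ratio T/C, where T is the treated-group value and C the vehicle-dosed control value, from mice implanted with a transplantable tumor.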

Measured: T/C

Nc1ncnc2c1ccn2C1OC(CO)C(O)C1O (configuration not stated)
inactive: endpoint: mean survival time, dose: 0.13 mg/kg/injection, schedule: Q01DX009 (ip), vehicle: saline 104 % of control and 106 % of control | endpoint: mean survival time, dose: 0.16 mg/kg/injection, schedule: Q01DX010 (ip), vehicle: saline 98 % of control and 108 % of control | endpoint: mean survival time, dose: 0.25 mg/kg/injection, schedule: Q01DX009 (ip), vehicle: saline 104 % of control and 110 % of control | endpoint: mean survival time, dose: 0.32 mg/kg/injection, schedule: Q01DX010 (ip), vehicle: saline 104 % of control and 111 % of control | endpoint: mean survival time, dose: 0.5 mg/kg/injection, schedule: Q01DX009 (ip), vehicle: saline 103 % of control and 104 % of control | endpoint: mean survival time, dose: 0.5 mg/kg/injection, schedule: Q03HX008 (ip), vehicle: carboxymethylcellulose (CMC) 102 % of control | endpoint: mean survival time, dose: 0.5 mg/kg/injection, schedule: Q06HX004 (ip), vehicle: carboxymethylcellulose (CMC) 101 % of control | endpoint: mean survival time, dose: 0.63 mg/kg/injection, schedule: Q01DX009 (ip), vehicle: saline 114 % of control | endpoint: mean survival time, dose: 0.63 mg/kg/injection, schedule: Q01DX010 (ip), vehicle: saline 98 % of control and 107 % of control | endpoint: mean survival time, dose: 1.0 mg/kg/injection, schedule: Q01DX001 (ip), vehicle: carboxymethylcellulose (CMC) 109 % of control | endpoint: mean survival time, dose: 1.0 mg/kg/injection, schedule: Q01DX009 (ip), vehicle: saline 99 % of control and 107 % of control | endpoint: mean survival time, dose: 1.0 mg/kg/injection, schedule: Q03HX008 (ip), vehicle: carboxymethylcellulose (CMC) 104 % of control | endpoint: mean survival time, dose: 1.0 mg/kg/injection, schedule: Q06HX004 (ip), vehicle: carboxymethylcellulose (CMC) 104 % of control | endpoint: mean survival time, dose: 1.0 mg/kg/injection, schedule: Q#A X002 (ip), vehicle: carboxymethylcellulose (CMC) 108 % of control | endpoint: mean survival time, dose: 1.25 mg/kg/injection, schedule: Q01DX009 (ip), vehicle: saline 118 % of control | endpoint: mean survival time, dose: 1.25 mg/kg/injection, schedule: Q01DX010 (ip), vehicle: saline 118 % of control and 119 % of control | endpoint: mean survival time, dose: 2.0 mg/kg/injection, schedule: Q03HX008 (ip), vehicle: carboxymethylcellulose (CMC) 117 % of control | endpoint: mean survival time, dose: 2.0 mg/kg/injection, schedule: Q06HX004 (ip), vehicle: carboxymethylcellulose (CMC) 107 % of control | endpoint: mean survival time, dose: 2.0 mg/kg/injection, schedule: Q#A X002 (ip), vehicle: carboxymethylcellulose (CMC) 110 % of control | endpoint: mean survival time, dose: 2.5 mg/kg/injection, schedule: Q01DX009 (ip), vehicle: saline 116 % of control | endpoint: mean survival time, dose: 4.0 mg/kg/injection, schedule: Q01DX001 (ip), vehicle: carboxymethylcellulose (CMC) 120 % of control | endpoint: mean survival time, dose: 4.0 mg/kg/injection, schedule: Q03HX008 (ip), vehicle: carboxymethylcellulose (CMC) 108 % of control | endpoint: mean survival time, dose: 4.0 mg/kg/injection, schedule: Q06HX004 (ip), vehicle: carboxymethylcellulose (CMC) 114 % of control | endpoint: mean survival time, dose: 8.0 mg/kg/injection, schedule: Q01DX001 (ip), vehicle: carboxymethylcellulose (CMC) 124 % of control | endpoint: mean survival time, dose: 8.0 mg/kg/injection, schedule: Q03HX008 (ip), vehicle: carboxymethylcellulose (CMC) 118 % of control | endpoint: mean survival time, dose: 8.0 mg/kg/injection, schedule: Q06HX004 (ip), vehicle: carboxymethylcellulose (CMC) 116 % of control | endpoint: mean survival time, dose: 8.0 mg/kg/injection, schedule: Q#A X002 (ip), vehicle: carboxymethylcellulose (CMC) 122 % of control | endpoint: median survival time, dose: 0.06 mg/kg/injection, schedule: Q03HX024 (ip), vehicle: other 107 % of control | endpoint: median survival time, dose: 0.13 mg/kg/injection, schedule: Q03HX008 (ip), vehicle: other 102 % of control | endpoint: median survival time, dose: 0.13 mg/kg/injection, schedule: Q03HX016 (ip), vehicle: other 96 % of control | endpoint: median survival time, dose: 0.13 mg/kg/injection, schedule: Q03HX024 (ip), vehicle: other 100 % of control | endpoint: median survival time, dose: 0.25 mg/kg/injection, schedule: Q01DX009 (ip), vehicle: other 94 % of control | endpoint: median survival time, dose: 0.25 mg/kg/injection, schedule: Q01DX009 (sc), vehicle: other 93 % of control | endpoint: median survival time, dose: 0.25 mg/kg/injection, schedule: Q03HX008 (ip), vehicle: other 96 % of control | endpoint: median survival time, dose: 0.25 mg/kg/injection, schedule: Q03HX016 (ip), vehicle: other 94 % of control | endpoint: median survival time, dose: 0.25 mg/kg/injection, schedule: Q03HX024 (ip), vehicle: other 101 % of control | endpoint: median survival time, dose: 0.5 mg/kg/injection, schedule: Q01DX009 (ip), vehicle: other 88 % of control | endpoint: median survival time, dose: 0.5 mg/kg/injection, schedule: Q01DX009 (oral), vehicle: other 99 % of control | endpoint: median survival time, dose: 0.5 mg/kg/injection, schedule: Q01DX009 (sc), vehicle: other 98 % of control | endpoint: median survival time, dose: 0.5 mg/kg/injection, schedule: Q03HX008 (ip), vehicle: other 100 % of control | endpoint: median survival time, dose: 0.5 mg/kg/injection, schedule: Q03HX016 (ip), vehicle: other 101 % of control | endpoint: median survival time, dose: 0.5 mg/kg/injection, schedule: Q03HX024 (ip), vehicle: other 96 % of control | endpoint: median survival time, dose: 0.5 mg/kg/injection, schedule: Q04DX003 (ip), vehicle: other 98 % of control | endpoint: median survival time, dose: 1.0 mg/kg/injection, schedule: Q01DX001 (ip), vehicle: other 102 % of control | endpoint: median survival time, dose: 1.0 mg/kg/injection, schedule: Q01DX001 (sc), vehicle: other 104 % of control | endpoint: median survival time, dose: 1.0 mg/kg/injection, schedule: Q01DX009 (ip), vehicle: other 92 % of control | endpoint: median survival time, dose: 1.0 mg/kg/injection, schedule: Q01DX009 (oral), vehicle: other 99 % of control | endpoint: median survival time, dose: 1.0 mg/kg/injection, schedule: Q01DX009 (sc), vehicle: other 98 % of control | endpoint: median survival time, dose: 1.0 mg/kg/injection, schedule: Q03HX008 (ip), vehicle: other 99 % of control | endpoint: median survival time, dose: 1.0 mg/kg/injection, schedule: Q03HX016 (ip), vehicle: other 93 % of control | endpoint: median survival time, dose: 1.0 mg/kg/injection, schedule: Q04DX003 (ip), vehicle: other 99 % of control | endpoint: median survival time, dose: 1.0 mg/kg/injection, schedule: Q08DX002 (ip), vehicle: other 108 % of control | endpoint: median survival time, dose: 2.0 mg/kg/injection, schedule: Q01DX001 (ip), vehicle: other 111 % of control | endpoint: median survival time, dose: 2.0 mg/kg/injection, schedule: Q01DX001 (oral), vehicle: other 99 % of control | endpoint: median survival time, dose: 2.0 mg/kg/injection, schedule: Q01DX001 (sc), vehicle: other 103 % of control | endpoint: median survival time, dose: 2.0 mg/kg/injection, schedule: Q01DX009 (oral), vehicle: other 100 % of control | endpoint: median survival time, dose: 2.0 mg/kg/injection, schedule: Q01DX009 (sc), vehicle: other 91 % of control | endpoint: median survival time, dose: 2.0 mg/kg/injection, schedule: Q04DX003 (ip), vehicle: other 111 % of control | endpoint: median survival time, dose: 2.0 mg/kg/injection, schedule: Q08DX002 (ip), vehicle: other 104 % of control | endpoint: median survival time, dose: 4.0 mg/kg/injection, schedule: Q01DX001 (ip), vehicle: other 113 % of control | endpoint: median survival time, dose: 4.0 mg/kg/injection, schedule: Q01DX001 (oral), vehicle: other 96 % of control | endpoint: median survival time, dose: 4.0 mg/kg/injection, schedule: Q01DX001 (sc), vehicle: other 99 % of control | endpoint: median survival time, dose: 4.0 mg/kg/injection, schedule: Q01DX009 (oral), vehicle: other 101 % of control | endpoint: median survival time, dose: 4.0 mg/kg/injection, schedule: Q01DX009 (sc), vehicle: other 93 % of control | endpoint: median survival time, dose: 4.0 mg/kg/injection, schedule: Q04DX003 (ip), vehicle: other 106 % of control | endpoint: median survival time, dose: 4.0 mg/kg/injection, schedule: Q08DX002 (ip), vehicle: other 114 % of control | endpoint: median survival time, dose: 8.0 mg/kg/injection, schedule: Q01DX001 (ip), vehicle: other 110 % of control | endpoint: median survival time, dose: 8.0 mg/kg/injection, schedule: Q01DX001 (oral), vehicle: other 101 % of control | endpoint: median survival time, dose: 8.0 mg/kg/injection, schedule: Q01DX001 (sc), vehicle: other 100 % of control | endpoint: median survival time, dose: 8.0 mg/kg/injection, schedule: Q01DX009 (oral), vehicle: other 103 % of control | endpoint: median survival time, dose: 8.0 mg/kg/injection, schedule: Q04DX003 (ip), vehicle: other 90 % of control | endpoint: median survival time, dose: 8.0 mg/kg/injection, schedule: Q08DX002 (ip), vehicle: other 108 % of control | endpoint: median survival time, dose: 16.0 mg/kg/injection, schedule: Q01DX001 (oral), vehicle: other 100 % of control | endpoint: median survival time, dose: 32.0 mg/kg/injection, schedule: Q01DX001 (oral), vehicle: other 86 % of control

Clc1nnc(-c2ccccc2)c(-c2ccccc2)n1
inactive: endpoint: mean survival time, dose: 100.0 mg/kg/injection, schedule: Q04DX003 (ip), vehicle: saline 91 % of control

Cc1cn(C2CC(O)C(CS[As](C)C)O2)c(=O)[nH]c1=O (configuration not stated)
inactive: endpoint: mean survival time, dose: 12.5 mg/kg/injection, schedule: Q01DX005 (ip), vehicle: distilled water + Tween-80 98 % of control | endpoint: mean survival time, dose: 25.0 mg/kg/injection, schedule: Q01DX005 (ip), vehicle: distilled water + Tween-80 102 % of control | endpoint: mean survival time, dose: 50.0 mg/kg/injection, schedule: Q01DX005 (ip), vehicle: distilled water + Tween-80 102 % of control | endpoint: mean survival time, dose: 100.0 mg/kg/injection, schedule: Q01DX005 (ip), vehicle: distilled water + Tween-80 93 % of control

CC(=O)c1ccc(N=Nc2c(N)nc(N)[nH]c2=O)cc1
inactive: endpoint: mean survival time, dose: 100.0 mg/kg/injection, schedule: Q01DX009 (ip), vehicle: saline with Tween-80 86 % of control | endpoint: mean survival time, dose: 200.0 mg/kg/injection, schedule: Q01DX009 (ip), vehicle: saline with Tween-80 105 % of control | endpoint: mean survival time, dose: 400.0 mg/kg/injection, schedule: Q01DX009 (ip), vehicle: saline with Tween-80 102 % of control
